The target in test [1] is T1, SR-B1 (Mus musculus, UniProt Q61009).
T1 construct: expressed in transfected cells; host or cells: CHO cells
T1 sequence (Q61009 1-509): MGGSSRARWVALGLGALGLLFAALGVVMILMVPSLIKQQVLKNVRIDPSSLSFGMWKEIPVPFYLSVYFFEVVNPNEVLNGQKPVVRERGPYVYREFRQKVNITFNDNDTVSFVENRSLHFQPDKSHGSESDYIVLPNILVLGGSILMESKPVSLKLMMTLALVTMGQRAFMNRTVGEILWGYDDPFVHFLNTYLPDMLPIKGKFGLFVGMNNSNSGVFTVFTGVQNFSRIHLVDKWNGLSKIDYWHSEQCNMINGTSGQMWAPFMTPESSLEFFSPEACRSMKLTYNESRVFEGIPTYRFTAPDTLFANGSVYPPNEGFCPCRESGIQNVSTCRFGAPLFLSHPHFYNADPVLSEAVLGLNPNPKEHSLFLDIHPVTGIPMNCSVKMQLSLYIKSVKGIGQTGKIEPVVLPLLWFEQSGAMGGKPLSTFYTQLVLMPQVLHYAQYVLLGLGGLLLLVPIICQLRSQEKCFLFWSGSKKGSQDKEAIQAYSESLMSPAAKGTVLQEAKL
Nature of the test: Cholesterol uptake assay (Example 4), [3H]-cholesterol, CHO cells expressing SR-B1. Type of test: cell-based. To be noted: 10 μM ezetimibe. An excerpt: The cells were harvested and the lipids were organically extracted. The extracted lipids were spotted on thin-layer chromatography (TLC) plates and resolved within an organic vapor phase. The free cholesterol bands for each assay were isolated and counted in a scintillation counter.

The test system of test [2] is cholesterol absorption. Nature of the test: Cholesterol absorption in mice, dual fecal isotope ratio method (cholesterol/sitostanol) (Example 24). Type of test: in vivo, mouse. To be noted: chow diet. The protocol: Cholesterol absorption in the mice was determined by the dual fecal isotope ratio method as described by Altmann et al. (Biochim. Biophys. Acta. 1580(1):77–93 (2002)). […] Mice were gavaged with ^14C-cholesterol (1 μCi, 0.1 mg unlabeled cholesterol) and ^3H-sitostanol (2 μCi) in 0.1 ml corn oil. Feces were collected for 2 days and fecal ^14C-cholesterol and ^3H-sitostanol levels were determined by combustion in a Packard Oxidizer. The fraction of cholesterol absorbed, as evaluated by the fecal dual isotope technique, was similar in wild type (+/+) and heterozygous mice (+/−) fed a chow diet (heterozygous mice absorbed 46±5% and age matched wild type mice absorbed 51±3% of the dose of ^14C-cholesterol).

The target in test [3] is T2, mouse NPC1L1 (Mus musculus, UniProt Q6T3U4).
T2 construct: using clone specific PCR primers to generate the ORF flanked by appropriate restriction sites; expressed in transfected cells
The experiment in a line: FACS analysis of BODIPY-labeled ezetimibe binding, mNPC1L1/CHO. As to conditions: 100 nM BODIPY-labeled ezetimibe. The protocol: (§1) “BODIPY” is a fluorescent group which was used to detect the BODIPY-ezetimibe. Chinese hamster ovary (CHO) cells were transiently transfected with rat NPC1L1 DNA (rNPC1L1/CHO), mouse NPC1L1 DNA (mNPC1L1/CHO), mouse SR-B1 DNA (mSRBI/CHO) or EGFP DNA (EGFP/CHO). EGFP is enhanced green fluorescent protein which was used as a positive control. […] Control experiments were also performed wherein the cells were not labeled with the BODIPY-ezetimibe and wherein untransfected CHO cells were labeled with the BODIPY-ezetimibe.

Test [4] deals with T3, mouse SR-B1 (Mus musculus, UniProt Q61009).
T3 construct: expressed in transfected cells
T3 sequence (Q61009 1-509): T1 sequence (Q61009 1-509)
The experiment in a line: FACS analysis of BODIPY-labeled ezetimibe binding, mSRBI/CHO. As to conditions: 100 nM BODIPY-labeled ezetimibe. The protocol: as §1
In general terms: In flow cytometry, cells or beads pass a laser one at a time.

For test [5], the target named is T4, rat NPC1L1 (Rattus norvegicus, UniProt Q6T3U3).
T4 construct: using clone specific PCR primers to generate the ORF flanked by appropriate restriction sites; expressed in transfected cells
Nature of the test: FACS analysis of BODIPY-labeled ezetimibe binding, rNPC1L1/CHO. As to conditions: 100 nM BODIPY-labeled ezetimibe. The protocol:
as §1

Test [6] relates to untransfected CHO cells. The experiment in a line: FACS analysis of BODIPY-labeled ezetimibe binding, untransfected CHO cells. To be noted: 100 nM BODIPY-labeled ezetimibe. Set-up: species or system chinese hamster. The protocol:
as §1

With `O=C1[C@H](CC[C@H](O)c2ccc(F)cc2)[C@@H](c2ccc(O)cc2)N1c1ccc(F)cc1` [ezetimibe], the “[3H]-cholesterol uptake” value in test [1] is listed as “inhibited”. Moreover, the “fraction of cholesterol absorbed (of the dose of 14C-cholesterol)” value in test [2] (NPC1L1 knockout mice (−/−), ezetimibe 10 mg/kg/day) worked out at 16.2±0.6%; in test [2] (wild type mice, ezetimibe 10 mg/kg daily), 16.1±0.3%.
Consider “N-(4,4-difluoro-5.7-dimethyl-4-bora-3a.4a-diaza-s-indacene-3-vl)methyl iodoacetamide/ezetimibe [BODIPY-ezetimibe]”, for which the “staining of cells (FACS)” value is reported as “No staining” in test [3], “detected” in test [4], “No staining” in test [5] and “No staining” in test [6].

The record behind these values is patent US7135556B2, “NPC1L1 (NPC3) and methods of use thereof” (Schering Corporation, priority 2002, dated 2006).
